Consider eleven molecules from ChEMBL document CHEMBL1201862, “PubChem BioAssay data set” (2004).

As usually defined, the GI50 is the concentration at which growth is held to half of that of the control.

Some test systems named below: SK-OV-3; HCT-15; Hs-578T; MCF7; A549; NCI-H522; TK-10; HCT-116; DU-145; ACHN; U-251; NCI-H226; HOP-62; HT-29; OVCAR-5; HL-60; SN12C; LOX IMVI; EKVX; BT-549.
What all share (experiment): DTP human tumour cell line panel, 48 h

The structures appear in SMILES notation.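 Dose response: 5 concentrations. Exposure: 48 h. Format: 96-well plates. Endpoint: linear interpolation; highest concentration if not reached. Here, GI50 denotes the concentration required for 50% inhibition of growth.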 Active and inactive are the calls of the source. No stated cut-off is given here; in the data, active = GI50 up to about 1.1 µM and inactive = higher.

As to `N=C(CSSCC(=N)NCC12CC3CC(CC(C3)C1)C2)NCC12CC3CC(CC(C3)C1)C2`, the GI50 in the experiment with SK-OV-3 is 17 µM (inactive); with HCT-15, 12.2 µM; in the experiment with Hs-578T, 23.4 µM (inactive); in the experiment with MCF7 it was 29.7 µM (inactive); with A549, 13.7 µM (inactive); with NCI-H522, 15.1 µM (inactive). The GI50 in the experiment with TK-10 was 18.8 µM (inactive); in the experiment with HCT-116, 22.4 µM (inactive); with DU-145, 16.9 µM (inactive); with ACHN it was 13.3 µM (inactive); with U-251, 14.3 µM (inactive); in the experiment on NCI-H226, 20.9 µM (inactive). Also, the GI50 is 32.1 µM (inactive) in the experiment with HOP-62; 13.6 µM (inactive) with HT-29; 17.7 µM (inactive) with OVCAR-5; 11 µM (inactive) with HL-60; 15.7 µM (inactive) in the experiment with SN12C.
Take `COc1cc(C2SC(C)C(=O)N2c2ccc(-c3csc(NS(=O)(=O)c4ccc(Cl)c(OC)c4)n3)cc2)ccc1O` (stereo not given): the GI50 with SK-OV-3 was > 100 µM (inactive); in the experiment on HCT-15, 33.9 µM; with Hs-578T, 54.1 µM (inactive); in the experiment on MCF7, 38.4 µM (inactive); with A549 it was > 100 µM (inactive); with NCI-H522, 21.7 µM (inactive). The GI50 in the experiment on TK-10 is > 100 µM (inactive); with HCT-116, 31.8 µM (inactive); in the experiment with DU-145, > 100 µM (inactive); in the experiment on ACHN it was > 100 µM (inactive); with U-251, 46.5 µM (inactive); in the experiment on NCI-H226, > 100 µM (inactive). The GI50 was > 100 µM (inactive) in the experiment on HOP-62; > 100 µM (inactive) with HT-29; > 100 µM (inactive) in the experiment on OVCAR-5; 31.3 µM (inactive) in the experiment with LOX IMVI; 48.2 µM (inactive) with HL-60; 20.6 µM (inactive) in the experiment on SN12C.
`COc1ccc(-c2nc3cc(C(F)(F)F)ccc3n2CC2CCCN3CCCCC23)cc1` (stereo not given): the GI50 was 17.7 µM (inactive) with SK-OV-3; 15.7 µM in the experiment on HCT-15; 15.5 µM (inactive) in the experiment on Hs-578T; 13.2 µM (inactive) in the experiment with MCF7; 15.6 µM (inactive) in the experiment on NCI-H522; 16.6 µM (inactive) in the experiment on TK-10. Moreover, the GI50 is 18.1 µM (inactive) in the experiment on HCT-116; 17.1 µM (inactive) in the experiment with DU-145; 15.6 µM (inactive) in the experiment with ACHN; 17 µM (inactive) with U-251; 16.5 µM (inactive) in the experiment on NCI-H226; 18.7 µM (inactive) with HOP-62. Also, the GI50 in the experiment with EKVX is 12.1 µM (inactive); with HT-29 it was 13.3 µM (inactive); in the experiment on OVCAR-5, 27.1 µM (inactive); in the experiment on LOX IMVI, 15 µM (inactive); in the experiment with HL-60, 14.3 µM (inactive).
For `CN(C)P(=O)(Oc1occc1C(O)Cc1ccccc1)N(C)C` (stereo not given), the GI50 with SK-OV-3 is > 100 µM (inactive); in the experiment on HCT-15, greater than 100 µM; with MCF7, > 100 µM (inactive); in the experiment with A549 it was > 100 µM (inactive); in the experiment with NCI-H522 it was > 100 µM (inactive); in the experiment with TK-10 it was > 100 µM (inactive). Further, the GI50 with HCT-116, in the experiment with BT-549, in the experiment on ACHN, with U-251, in the experiment on NCI-H226 and in the experiment with HOP-62 was > 100 µM (inactive) each time. Besides, the GI50 with EKVX, in the experiment on OVCAR-5, in the experiment with LOX IMVI and in the experiment with SN12C was > 100 µM (inactive) each time.
Turning to `O=C1c2ccccc2C(=O)c2sc(Nc3ccc(Cl)c(Cl)c3)nc21`, the GI50 is 18 µM (inactive) in the experiment on SK-OV-3; 2.26 µM in the experiment with HCT-15; 6.92 µM (inactive) with Hs-578T; 23.5 µM (inactive) in the experiment with A549; 2.07 µM (inactive) in the experiment with NCI-H522; 11.1 µM (inactive) in the experiment on TK-10. Moreover, the GI50 with HCT-116 is 3 µM (inactive); in the experiment on DU-145, 18.8 µM (inactive); in the experiment on ACHN, 1.75 µM (inactive); in the experiment on U-251, 2.43 µM (inactive); in the experiment on NCI-H226 it was 1.48 µM (inactive); in the experiment on HOP-62 it was 7.38 µM (inactive). In addition, the GI50 was 14.3 µM (inactive) in the experiment on EKVX; 19.7 µM (inactive) in the experiment on HT-29; 2.9 µM (inactive) in the experiment on OVCAR-5; 2.17 µM (inactive) with LOX IMVI; 0.256 µM (active) with HL-60; 1.83 µM (inactive) in the experiment on SN12C.
With `Cc1ccc(S(=O)(=O)NC(=O)Nc2cccc(S(N)(=O)=O)c2)cc1`, the GI50 in the experiment on SK-OV-3 is > 100 µM (inactive); in the experiment on HCT-15, greater than 100 µM; with Hs-578T, > 100 µM (inactive); in the experiment with MCF7, > 100 µM (inactive); in the experiment with A549 it was > 100 µM (inactive); with NCI-H522, > 100 µM (inactive). Moreover, the GI50 with TK-10, in the experiment with HCT-116, in the experiment with DU-145, with ACHN, in the experiment with U-251 and in the experiment with NCI-H226 was > 100 µM (inactive) throughout. The GI50 with HOP-62, in the experiment on EKVX, in the experiment with HT-29, in the experiment on OVCAR-5, with LOX IMVI and with HL-60 was > 100 µM (inactive) in each case.
As to `OCC1CCCC1O` (stereo not given), the GI50 in the experiment with HCT-15 is greater than 100 µM; with MCF7, > 100 µM (inactive); with A549, > 100 µM (inactive); in the experiment with NCI-H522 it was > 100 µM (inactive); in the experiment on TK-10 it was > 100 µM (inactive); in the experiment on HCT-116 it was > 100 µM (inactive). Further, the GI50 with BT-549, in the experiment with DU-145, with ACHN, with U-251, in the experiment on NCI-H226 and in the experiment on HT-29 was > 100 µM (inactive) each time. Further, the GI50 in the experiment on OVCAR-5, with HL-60 and with SN12C was > 100 µM (inactive) throughout.
As to `COc1cc(C2c3cc4c(cc3[C@@H](Nc3ccc(N)cc3)C3COC(=O)[C@H]23)OCO4)cc(OC)c1O` (stereo not given in full), the GI50 in the experiment with SK-OV-3 was 1.51 µM (inactive); in the experiment with HCT-15, 2.21 µM; with MCF7, 0.0451 µM (active); with A549 it was 0.137 µM (active); in the experiment on NCI-H522, 2.22 µM (inactive); in the experiment with TK-10 it was 3.64 µM (inactive). Also, the GI50 with HCT-116 was 2.7 µM (inactive); in the experiment with BT-549, 2.5 µM (inactive); in the experiment with DU-145, 0.121 µM (active); in the experiment on ACHN, 1.25 µM (inactive); in the experiment with U-251, 0.401 µM (active); in the experiment on NCI-H226, 1.19 µM (inactive). In addition, the GI50 with HOP-62 was 0.363 µM (active); with EKVX it was 3.64 µM (inactive); in the experiment with HT-29, 3.64 µM (inactive); in the experiment with OVCAR-5 it was 4.08 µM (inactive); in the experiment with LOX IMVI, 0.395 µM (active); with SN12C, 0.711 µM (active).
On to `C[n+]1c(-c2ccc(/C=N\Nc3ccnc(N/N=C/c4ccc(-c5cn6ccsc6[n+]5C)cc4)n3)cc2)cn2ccsc21`, for which the GI50 was > 100 µM (inactive) in the experiment on SK-OV-3; 64.4 µM in the experiment on HCT-15; 84.1 µM (inactive) in the experiment with Hs-578T; 34.8 µM (inactive) in the experiment with MCF7; 31.3 µM (inactive) in the experiment with A549; > 100 µM (inactive) in the experiment on NCI-H522. Also, the GI50 with TK-10 is 20.3 µM (inactive); with DU-145, 27.8 µM (inactive); with ACHN it was 32.5 µM (inactive); in the experiment with U-251, 32.6 µM (inactive); in the experiment with NCI-H226 it was 16.4 µM (inactive); in the experiment on HOP-62 it was 18.1 µM (inactive). Moreover, the GI50 with EKVX was 24.8 µM (inactive); with HT-29, 9.93 µM (inactive); with OVCAR-5, 16.7 µM (inactive); in the experiment with HL-60 it was 24.2 µM (inactive); in the experiment with SN12C, 27.1 µM (inactive).
As for `Cc1ccc(/N=C2\SC(=NN(C)C)S\C2=N/c2ccc(C)cc2)cc1`, the GI50 in the experiment on SK-OV-3 was > 100 µM (inactive); in the experiment with HCT-15, greater than 100 µM; in the experiment on Hs-578T it was > 100 µM (inactive); in the experiment on A549 it was > 100 µM (inactive); in the experiment with NCI-H522 it was 4.71 µM (inactive); in the experiment on TK-10, > 100 µM (inactive). Also, the GI50 with HCT-116, in the experiment with DU-145, in the experiment on ACHN, in the experiment with U-251, with NCI-H226 and with HOP-62 was > 100 µM (inactive) in each case. Moreover, the GI50 in the experiment with EKVX, in the experiment with HT-29, in the experiment on OVCAR-5, in the experiment on LOX IMVI, in the experiment with HL-60 and with SN12C was > 100 µM (inactive) each time.
On to `CCN(C(=O)N[C@@H](Cc1ccccc1)C(=O)N[C@@H](CC(C)C)C(=O)NC)c1ccccc1`, for which the GI50 is > 100 µM (inactive) in the experiment on SK-OV-3; greater than 100 µM in the experiment with HCT-15; > 100 µM (inactive) in the experiment on MCF7; > 100 µM (inactive) with A549; > 100 µM (inactive) with NCI-H522; > 100 µM (inactive) with TK-10. Moreover, the GI50 with HCT-116, with BT-549, in the experiment with DU-145, in the experiment on ACHN, in the experiment with U-251 and with NCI-H226 was > 100 µM (inactive) in each case. Further, the GI50 in the experiment with HOP-62, in the experiment with EKVX, in the experiment with HT-29, in the experiment on OVCAR-5, in the experiment with LOX IMVI and in the experiment on SN12C was > 100 µM (inactive) throughout.
